Nine compounds from patent publication US20240293418A1, “COMBINATION THERAPY FOR TREATING CANCER” (Epizyme, Inc., priority 2016, published 2024) can be followed below.

Assay in all cases: 7 day pretreatment + 4-day co-treatment combination model (Cell Titer Glo)
A general note: ATP-based viability assays read luminescence as a measure of living cells.

For assay [1], the system named is LP-1. The settings on record: for IC50: Homo sapiens, LP-1, 96 h, read-out: 4-day IC50; for combinatorial effect by Loewe volumes: second agent + tazemetostat, 7 day pretreatment + 4-day co-treatment, LP-1 t(4;14).
Excerpt: (§1) Assay plates were developed for endpoint analysis using Cell Titer Glo to measure ATP content, which was used as an indicator of cell viability. DMSO concentration was kept constant throughout the assay at less than 0.2% v/v.
(§2) Cell lines: The cell lines MI1.S and U266B1 were obtained from American Type Culture Collection (ATCC; Rockville, MD). The cell lines LP-1, L-363 were obtained from Deutsche Sammlung von Mikroorganismen and Zellkulturen (DSMZ; Braunschweig, Germany) and the cell line KMS-28BM was obtained from Japanese Collection of Research Bioresources Cell Bank (JCRB, Osaka Japan). All cells were maintained as instructed by the supplier and cultures were maintained at 37° C. in a humidified atmosphere and 5% CO2.
(§3) Loewe volumes greater than 1 denoted synergy and volumes <−1 denoted antagonism.
For assay [2], the system named is MM1.S. The settings on record: Homo sapiens, MM1.S, 96 h, read-out: 4-day IC50.
Excerpt: as §1, §2, §3
The test system of assay [3] is L-363. Conditions: for IC50: Homo sapiens, L-363, 96 h, read-out: 4-day IC50; for combinatorial effect by Loewe volumes: second agent + tazemetostat, 7 day pretreatment + 4-day co-treatment, L-363 t(20;22).
Excerpt: as §1, §2, §3
Assay [4] has as its system U266. The settings on record: for IC50: Homo sapiens, U-266, 96 h, read-out: 4-day IC50; for combinatorial effect by Loewe volumes: second agent + tazemetostat, 7 day pretreatment + 4-day co-treatment, U266 t(11;14).
Excerpt: as §1, §2, §3
The test system of assay [5] is KMS-28-BM. The settings on record: for IC50: KMS-28BM, 96 h, read-out: 4-day IC50; for combinatorial effect by Loewe volumes: second agent + tazemetostat, 7 day pretreatment + 4-day co-treatment, KMS-28-BM t(4;14).
Description: as §1
(§4) All cells were maintained as instructed by the supplier and cultures were maintained at 37° C. in a humidified atmosphere and 5% CO2.
as §3
For assay [6], the system named is MOLP-8. The settings on record: second agent + tazemetostat, MOLP-8 t(11;14).
Description: as §1, §4, §3

On to `Cn1c(CCCC(=O)O)nc2cc(N(CCCl)CCCl)ccc21` [Bendamustine, bendamustine], for which the IC50 in assay [1], in assay [2], in assay [3], in assay [4] and in assay [5] was greater than 10000 nM throughout.
Turning to `CC(C)C[C@H](NC(=O)[C@H](CCc1ccccc1)NC(=O)CN1CCOCC1)C(=O)N[C@@H](Cc1ccccc1)C(=O)N[C@@H](CC(C)C)C(=O)[C@@]1(C)CO1` [Carfilzomib, carfilzomib], the IC50 was 3.5 nM in assay [1]; 1.07 nM in assay [2]; 2 nM in assay [3]; 3 nM in assay [4]; 2 nM in assay [5]. For the same compound, the “combinatorial effect by Loewe volumes” value in assay [1] is on record as “S (Synergy)”; in assay [6] it was “A (Additive)”; in assay [3], “A (Additive)”; in assay [4] it was “S (Synergy)”; in assay [5], “S (Synergy)”.
As for `O=P1(N(CCCl)CCCl)NCCCO1` (centres unmarked) [Cyclophosphomide, cyclophosphamide], the IC50 was 6000 nM in assay [1]; 1180 nM in assay [2]; greater than 10000 nM in assay [3]; greater than 10000 nM in assay [4]; 1480 nM in assay [5].
For the compound `COc1cccc2c1C(=O)c1c(O)c3c(c(O)c1C2=O)C[C@@](O)(C(=O)CO)C[C@@H]3O[C@H]1C[C@H](N)[C@H](O)[C@H](C)O1` [Doxorubicin, doxorubicin], the IC50 in assay [1] is 203 nM; in assay [2], 8 nM; in assay [3], 10 nM; in assay [4], 50 nM; in assay [5] it was 87 nM. The “combinatorial effect by Loewe volumes” value in assay [1] is recorded as “S (Synergy)”; in assay [6] it was “A (Additive)”; in assay [3] it was “A (Additive)”; in assay [4] it was “A (Additive)”; in assay [5], “A (Additive)”.
With `COc1cc([C@@H]2c3cc4c(cc3[C@@H](O[C@@H]3O[C@@H]5CO[C@@H](C)O[C@H]5[C@H](O)[C@H]3O)[C@H]3COC(=O)[C@H]23)OCO4)cc(OC)c1O` [Etoposide, etoposide], the IC50 in assay [1] was found to be 3000 nM; in assay [2], 122 nM; in assay [3], 140 nM; in assay [4] it was 787 nM; in assay [5], 478 nM.
As for `N[C@@H](Cc1ccc(N(CCCl)CCCl)cc1)C(=O)O` [Melphalan, melphalan], the IC50 in assay [1] is greater than 10000 nM; in assay [2] it was 2940 nM; in assay [3], greater than 10000 nM; in assay [4], greater than 10000 nM; in assay [5], 1120 nM.
For the compound `O=C1CCC(N2C(=O)c3ccccc3C2=O)C(=O)N1` (centres unmarked) [Thalidomide, thalidomide], the 50% inhibitory concentration (IC50) in assay [1], in assay [2], in assay [3], in assay [4] and in assay [5] was greater than 10000 nM each time.
Regarding `CC[C@]1(O)C[C@H]2CN(CCc3c([nH]c4ccccc34)[C@@](C(=O)OC)(c3cc4c(cc3OC)N(C=O)[C@H]3[C@@](O)(C(=O)OC)[C@H](OC(C)=O)[C@]5(CC)C=CCN6CC[C@]43[C@@H]65)C2)C1` [Vincristine, vincristine], the IC50 in assay [1] came to 2.3 nM; in assay [2], 1 nM; in assay [3], 1 nM; in assay [4], 0.5 nM; in assay [5], 1.15 nM.
Consider `O=C(CCCCCCC(=O)Nc1ccccc1)NO` [Vorinostat, vorinostat], for which the IC50 in assay [1] came to 669 nM. For the same compound, the “combinatorial effect by Loewe volumes” value is given as “S (Synergy)” in assay [1]; “A (Additive)” in assay [6]; “A (Additive)” in assay [3]; “S (Synergy)” in assay [4]; “S (Synergy)” in assay [5].

In general, IC50 refers to the concentration that inhibits the measured activity by half.
